From patent publication US20200216416A1, “QUINOLINE COMPOUNDS AS INHIBITORS OF TAM AND MET KINASES” (Array BioPharma Inc., priority 2019, published 2020) come the findings set out here.

Read-outs that look alike come from different tables or passages of the source.

The target of one data set is T1, human MET kinase Y1230C (Homo sapiens, UniProt P08581, Y1230C).
T1 construct: GST-tagged recombinant human MET kinase domain; purchased Signal Chem
Put plainly: c-Met Enzyme Assay, Y1230C mutant. Type of data set: binding. To be noted: averaged IC50; Y1230C 2 nM; 60-minute incubation at 22° C.; read-out: Y1230 C IC50. As to the method: (§1) The affinity of compound binding to wild type and mutant human MET kinases was measured using Invitrogen's LanthaScreen™ Eu Kinase Binding technology. Briefly, GST-tagged recombinant human MET kinase domain from Signal Chem (see Table 8 below for concentration in assay) was incubated with 50 nM Alexa-Fluor® Tracer 236 (Invitrogen Cat No. PR9078A) and 2 nM Europium-anti-GST (Invitrogen Cat. No. A15116) along with test compound in a buffer consisting of 25 mM HEPES, pH 7.4, 10 mM MgCl2, 0.01% Triton X-100, 1mM DTT, and 2% DMSO. Compounds were typically prepared in a three-fold serial dilution in DMSO and added to the assay to give the appropriate final concentration. After a 60-minute incubation at 22° C., the reaction was measured using a PerkinElmer EnVision multimode plate reader via TR-FRET dual wavelength detection, and the percent of control (POC) calculated using a ratiometric emission factor. […] The POC values were fit to a 4 parameter logistic curve and the IC50 value is point where the curve crosses 50 POC.

The target of a further data set is T2, MDR1 (P-gp) (Homo sapiens, UniProt P08183).
T2 construct: expressed in transfected cells; host or cells: LLC-PK1
The experiment in a line: MDR1 LLC-PK1 permeability assay. It counts as in vitro ADME. The conditions noted are these: pig, MDR1 transfected LLC-PK1 cells; for Papp at 2 h, 1 μM: permeability coefficient (Papp). As to the method:
MDR1 transfected LLC-PK1 cells were cultured and plated according to manufacturer's recommendations with the exception that the passage media contained only 2% fetal bovine serum to extend passage time out to seven days.
Both positive and negative controls were used to assess functionality of P-gp efflux in the assay. Stock solutions for assay controls and the test article were prepared in DMSO for final test concentrations of 10 and 1 μM, respectively. Final organic concentration in the assay was 1%. All dosing solutions contained 10 μM lucifer yellow to monitor LLC-PK1 cell monolayer integrity.
For the apical to basolateral determination (A to B), 75 μL of the test article in transport buffer were added to the apical side of the individual transwells and 250 μL of basolateral media, without compound or lucifer yellow, were added to each well. For the basolateral to apical determination (B to A), 250 μL of test article in transport buffer were added to each well and 75 μL transport buffer, without compound or lucifer yellow, were added to each transwell. All tests were performed in triplicate, and each compound was tested for both apical to basolateral and basolateral to apical transport. The plates were incubated for 2 hours on a Lab-Line Instruments Titer Orbital Shaker (VWR, West Chester, Pa.) at 50 rpm and 37° C. with 5% CO2. All culture plates were removed from the incubator and 50 μL of media were removed from the apical and basolateral portion of each well and added to 150 μL of 1 μM labetalol in 2:1 acetonitrile (acetonitrile): H2O, v/v.
The plates were read using a Molecular Devices (Sunnyvale, Calif.) Gemini Fluorometer to evaluate the lucifer yellow concentrations at excitation/emission wavelengths of 425/535 nm. These values were accepted when found to be below 2% for apical to basolateral and 5% basolateral to apical flux across the MDR1-transfected LLC-PK1-transfected cell monolayers. The plates were sealed and the contents of each well analyzed by LC-MS/MS. The compound concentrations were determined from the ratio of the peak areas of the compound to the internal standard (labetalol) in comparison to the dosing solution.
The LC-MS/MS system was comprised of an HTS-PAL autosampler (Leap Technologies, Carrboro, N.C.), an HP1200 HPLC (Agilent, Palo Alto, Calif.), and a MDS Sciex 4000 Q Trap system (Applied Biosystems, Foster City, Calif.). […] The total run time, including re-equilibration, for a single injection was 1.2 minutes. Mass spectrometric detection of the analytes was accomplished using the ion spray positive mode. Analyte responses were measured by multiple reaction monitoring (MRM) of transitions unique to each compound (the protonated precursor ion and selected product ions for each test article and m/z 329 to m/z 162 for labetalol, the internal standard).
The permeability coefficient (Papp) is calculated from the following equation: […]
where Cd, V, t and C0 are the detected concentration (μM), the volume on the dosing side (mL), the incubation time (s) and the initial dosing concentration (μM), respectively. The calculations for Papp were made for each replicate and then averaged. In this assay, a compound is defined has having high permeability if the permeability is greater than 8×10^−6 cm/sec, a compound is defined has having medium permeability if the permeability is from 2×10^−6 cm/sec to 8×10^−6 cm/sec, and a compound is defined has having low permeability if the permeability is less than 2×10^−6 cm/sec.
An efflux ratio was calculated from the mean apical to basolateral (A-B) Papp data and basolateral to apical (B-A) Papp data:
Efflux ratio=Papp(B−A)/Papp(A−B)

A further data set concerns the target T3, human MET kinase L1195V (Homo sapiens, UniProt P08581, L1195V).
T3 construct: GST-tagged recombinant human MET kinase domain; purchased Signal Chem
Put plainly: c-Met Enzyme Assay, L1195V mutant. To be noted: averaged IC50; L1195V 10 nM; 60-minute incubation at 22° C. It counts as binding. Here is the method: as §1

Where [1] appears, read: LLC-PK1, Papp(B−A)/Papp(A−B), test article 1 μM, 2 hours, 37° C., read-out: Efflux ratio.
Setting [2] is: LLC-PK1, efflux ratio = Papp(B-A)/Papp(A-B), read-out: MDR1 Pe Ratio.

T3 sequence (P08581 1078-1345 L1195V limits assumed): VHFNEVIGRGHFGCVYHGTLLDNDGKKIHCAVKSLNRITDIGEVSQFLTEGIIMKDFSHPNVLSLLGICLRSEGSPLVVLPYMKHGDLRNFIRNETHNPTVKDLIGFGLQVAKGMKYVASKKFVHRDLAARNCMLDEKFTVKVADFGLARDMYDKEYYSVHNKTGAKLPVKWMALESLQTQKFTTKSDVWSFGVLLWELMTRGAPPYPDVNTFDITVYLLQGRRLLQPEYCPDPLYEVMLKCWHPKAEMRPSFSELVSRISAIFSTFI
T1 sequence (P08581 1078-1345 Y1230C): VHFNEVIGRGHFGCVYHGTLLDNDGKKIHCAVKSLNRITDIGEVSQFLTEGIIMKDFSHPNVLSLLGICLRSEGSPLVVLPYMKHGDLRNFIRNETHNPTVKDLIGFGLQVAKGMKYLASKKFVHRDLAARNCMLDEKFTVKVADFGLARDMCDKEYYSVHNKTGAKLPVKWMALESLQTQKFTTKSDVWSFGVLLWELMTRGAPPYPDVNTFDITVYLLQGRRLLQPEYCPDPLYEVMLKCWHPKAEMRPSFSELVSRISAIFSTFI
T2 sequence (P08183 whole entry): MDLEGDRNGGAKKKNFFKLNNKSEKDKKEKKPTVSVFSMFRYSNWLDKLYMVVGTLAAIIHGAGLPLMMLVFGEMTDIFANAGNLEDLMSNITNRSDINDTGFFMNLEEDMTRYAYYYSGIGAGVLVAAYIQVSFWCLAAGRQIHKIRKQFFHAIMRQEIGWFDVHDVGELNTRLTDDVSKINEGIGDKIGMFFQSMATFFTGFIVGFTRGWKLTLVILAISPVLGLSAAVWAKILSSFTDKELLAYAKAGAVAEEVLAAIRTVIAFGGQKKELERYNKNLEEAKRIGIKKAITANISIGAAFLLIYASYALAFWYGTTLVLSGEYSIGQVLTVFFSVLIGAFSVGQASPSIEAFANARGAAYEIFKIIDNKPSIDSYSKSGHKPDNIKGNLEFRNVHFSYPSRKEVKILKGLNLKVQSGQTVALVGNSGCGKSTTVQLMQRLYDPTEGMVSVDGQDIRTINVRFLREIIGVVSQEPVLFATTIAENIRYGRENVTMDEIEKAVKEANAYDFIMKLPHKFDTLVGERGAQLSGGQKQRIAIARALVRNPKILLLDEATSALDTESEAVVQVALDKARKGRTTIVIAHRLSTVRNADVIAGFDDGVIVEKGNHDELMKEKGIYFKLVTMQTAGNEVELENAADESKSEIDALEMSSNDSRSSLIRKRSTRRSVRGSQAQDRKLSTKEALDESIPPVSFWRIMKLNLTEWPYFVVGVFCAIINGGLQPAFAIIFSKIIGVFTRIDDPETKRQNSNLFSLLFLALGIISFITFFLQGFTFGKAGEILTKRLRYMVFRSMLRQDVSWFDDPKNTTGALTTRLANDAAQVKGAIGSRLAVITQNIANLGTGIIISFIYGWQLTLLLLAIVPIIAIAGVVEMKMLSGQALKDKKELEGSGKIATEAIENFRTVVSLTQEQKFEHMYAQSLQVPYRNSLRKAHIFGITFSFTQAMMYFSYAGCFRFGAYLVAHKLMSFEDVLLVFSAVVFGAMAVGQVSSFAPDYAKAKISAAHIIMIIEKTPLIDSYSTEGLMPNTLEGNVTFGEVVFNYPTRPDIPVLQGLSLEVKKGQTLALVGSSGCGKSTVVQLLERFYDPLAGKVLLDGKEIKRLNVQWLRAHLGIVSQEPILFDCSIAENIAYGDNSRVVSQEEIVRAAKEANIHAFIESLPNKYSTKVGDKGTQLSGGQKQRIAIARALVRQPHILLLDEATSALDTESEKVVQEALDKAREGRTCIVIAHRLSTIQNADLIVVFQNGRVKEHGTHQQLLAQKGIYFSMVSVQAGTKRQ

Take `COc1cc2nccc(Oc3ccc(NC(=O)c4cn(C(C)C)cc(-c5ccc(F)cc5)c4=O)nc3)c2cc1OC` [Example 1]: the IC50 worked out at 1.5 nM on human MET kinase Y1230C and 7.1 nM on human MET kinase L1195V. Further, the efflux ratio at 2 h, 1 μM at MDR1 (P-gp) (setting [1]) was 3.5; on MDR1 (P-gp) (setting [2]), 3.2. In addition, the Papp at 2 h, 1 μM on MDR1 (P-gp) was 10 ×10⁻⁶ cm/s.

Turning to `COc1cc2nccc(Oc3ccc(NC(=O)c4cn(C)cc(-c5ccc(F)cc5)c4=O)nc3)c2cc1OC` [Example 2], the figures for the IC50 at human MET kinase Y1230C and on human MET kinase L1195V were 9.5 nM and 87.1 nM, respectively. Besides, the efflux ratio at 2 h, 1 μM at MDR1 (P-gp) (setting [2]) was 8.3. Also, the Papp at 2 h, 1 μM at MDR1 (P-gp) was 15 ×10⁻⁶ cm/s.

In the case of `CCn1cc(C(=O)Nc2ccc(Oc3ccnc4cc(OC)c(OC)cc34)cn2)c(=O)c(-c2ccc(F)cc2)c1` [Example 3], the IC50 at human MET kinase Y1230C turned out to be 4.2 nM; at human MET kinase L1195V it was 15.3 nM. In addition, the efflux ratio at 2 h, 1 μM on MDR1 (P-gp) (setting [2]) was 4.3. At MDR1 (P-gp), this molecule returned a Papp at 2 h, 1 μM of 10 ×10⁻⁶ cm/s.

`COc1cc2nccc(Oc3ccc(NC(=O)c4cn(C(C)C)cc(-c5ccc(F)cc5F)c4=O)nc3)c2cc1OC` [Example 4]: the values for the IC50 on human MET kinase Y1230C and against human MET kinase L1195V were 2.8 nM and 21.9 nM, respectively. Moreover, the values for the efflux ratio at 2 h, 1 μM on MDR1 (P-gp) (setting [1]) and on MDR1 (P-gp) (setting [2]) were 3.5 and 1.5, respectively. The molecule also returned a Papp at 2 h, 1 μM on MDR1 (P-gp) of 10 ×10⁻⁶ cm/s.

As for `COc1cc2nccc(Oc3ccc(NC(=O)c4cn(C(C)C)cc(-c5ccc(Cl)cc5)c4=O)nc3)c2cc1OC` [Example 5, 5-(4-chlorophenyl)-N-(5-((6,7-dimethoxyquinolin-4-yl)oxy)pyridin-2-yl)-1-isopropyl-4-oxo-1,4-dihydropyridine-3-carboxamide], the results for the IC50 on human MET kinase Y1230C and against human MET kinase L1195V were 8.1 nM and 9.8 nM, respectively. In addition, the values for the efflux ratio at 2 h, 1 μM at MDR1 (P-gp) (setting [1]) and on MDR1 (P-gp) (setting [2]) were 3.5 and 2.6, respectively. The same molecule returned a Papp at 2 h, 1 μM at MDR1 (P-gp) of 5 ×10⁻⁶ cm/s.

Take `COc1cc2nccc(Oc3ccc(NC(=O)c4cn(C(C)C)cc(-c5ccc(F)c(F)c5)c4=O)nc3)c2cc1OC` [Example 6]: the IC50 at human MET kinase Y1230C was 12.4 nM; against human MET kinase L1195V it was 62.1 nM. Moreover, the efflux ratio at 2 h, 1 μM at MDR1 (P-gp) (setting [2]) came to 4.9. For the same molecule, the Papp at 2 h, 1 μM on MDR1 (P-gp) was found to be 7 ×10⁻⁶ cm/s.

As for `COCCn1cc(C(=O)Nc2ccc(Oc3ccnc4cc(OC)c(OC)cc34)cn2)c(=O)c(-c2ccc(F)cc2)c1` [Example 7, N-(5((6,7-dimethoxyquinolin-4-yl)oxy)pyridin-2-yl)-5-(4-fluorophenyl)-1-(2-methoxyethyl)-4-oxo-1,4-dihydropyridine-3-carboxamide], the figures for the IC50 on human MET kinase Y1230C and against human MET kinase L1195V were 2.9 nM and 7.3 nM, respectively. In addition, the efflux ratio at 2 h, 1 μM at MDR1 (P-gp) (setting [2]) was 8.2. Further, at MDR1 (P-gp), the Papp at 2 h, 1 μM is 11 ×10⁻⁶ cm/s.

With `COc1cc2nccc(Oc3ccc(NC(=O)c4cn(CC5CCOCC5)cc(-c5ccc(F)cc5)c4=O)nc3)c2cc1OC` [Example 8, N-(5-((6,7-dimethoxyquinolin-4-yl)oxy)pyridin-2-yl)-5-(4-fluorophenyl)-4-oxo-1-((tetrahydro-2H-pyran-4-yl)methyl)-1,4-dihydropyridine-3-carboxamide], the values for the IC50 at human MET kinase Y1230C and against human MET kinase L1195V were 7.4 nM and 29.1 nM, respectively. Moreover, at MDR1 (P-gp) (setting [2]), the efflux ratio at 2 h, 1 μM is 10. The molecule also yielded a Papp at 2 h, 1 μM at MDR1 (P-gp) of 9 ×10⁻⁶ cm/s.

Turning to `COc1cc2nccc(Oc3ccc(NC(=O)c4cn(CC(C)(C)O)cc(-c5ccc(F)cc5)c4=O)nc3)c2cc1OC` [Example 9, N-(5-((6,7-dimethoxyquinolin-4-yl)oxy)pyridin-2-yl)-5-(4-fluorophenyl)-1-(2-hydroxy-2-methylpropyl)-4-oxo-1,4-dihydropyridine-3-carboxamide], the IC50 on human MET kinase Y1230C was 6.2 nM; on human MET kinase L1195V it was 47.7 nM. Further, the efflux ratio at 2 h, 1 μM on MDR1 (P-gp) (setting [2]) worked out at 26. On MDR1 (P-gp), this molecule returned a Papp at 2 h, 1 μM of 14 ×10⁻⁶ cm/s.

For `CCCn1cc(C(=O)Nc2ccc(Oc3ccnc4cc(OC)c(OC)cc34)cn2)c(=O)c(-c2ccc(F)cc2)c1` [Example 10, N-(5((6,7-dimethoxyquinolin-4-yl)oxy)pyridin-2-yl)-5-(4-fluorophenyl)-4-oxo-1-propyl-1,4-dihydropyridine-3-carboxamide], the IC50 amounted to 3.1 nM on human MET kinase Y1230C and 9.7 nM against human MET kinase L1195V. The efflux ratio at 2 h, 1 μM on MDR1 (P-gp) (setting [2]) is 2.7. The same molecule gave a Papp at 2 h, 1 μM on MDR1 (P-gp) of 7 ×10⁻⁶ cm/s.

For `COc1cc2nccc(Oc3ccc(NC(=O)c4cn(CC(C)C)cc(-c5ccc(F)cc5)c4=O)nc3)c2cc1OC` [Example 11, N-(5-((6,7-dimethoxyquinolin-4-yl)oxy)pyridin-2-yl)-5-(4-fluorophenyl)-1-isobutyl-4-oxo-1,4-dihydropyridine-3-carboxamide], the IC50 at human MET kinase Y1230C is 6.5 nM; against human MET kinase L1195V, 21.4 nM. Further, the efflux ratio at 2 h, 1 μM at MDR1 (P-gp) (setting [2]) was found to be 31.

For the molecule `COc1cc2nccc(Oc3ccc(NC(=O)c4c[nH]cc(-c5ccc(F)cc5)c4=O)nc3)c2cc1OC` [Example 26, N-(5-((6,7-dimethoxyquinolin-4yl)oxy)pyridin-2-yl)-5-(4-fluorophenyl)-4-oxo-1,4-dihydropyridine-3-carboxamide], the IC50 at human MET kinase Y1230C was 6.5 nM. Besides, the efflux ratio at 2 h, 1 μM on MDR1 (P-gp) (setting [2]) is 44. Moreover, the Papp at 2 h, 1 μM on MDR1 (P-gp) turned out to be 3 ×10⁻⁶ cm/s.

In turn, `COc1cc2nccc(Oc3ccc(NC(=O)c4cn(C(C)C)c(C(C)C)c(-c5ccc(F)cc5)c4=O)nc3)c2cc1OC` [Example 38, N-(5-((6,7-dimethoxyquinolin-4yl)oxy)pyridin-2-yl)-5-(4-fluorophenyl)-1,6-diisopropyl-4-oxo-1,4-dihydropyridine-3-carboxamide] showed a Papp at 2 h, 1 μM on MDR1 (P-gp) of 25 ×10⁻⁶ cm/s.

With `COc1cc2nc(C)cc(Oc3ccc(NC(=O)c4cn(C(C)C)cc(-c5ccc(F)cc5)c4=O)nc3)c2cc1OC` [Example 53, N-(5-((6,7-dimethoxy-2-methylquinolin-4-yl)oxy)pyridin-2-yl)-5-(4-fluorophenyl)-1-isopropyl-4-oxo-1,4-dihydropyridine-3-carboxamide], the IC50 at human MET kinase Y1230C worked out at 3310 nM. Moreover, at MDR1 (P-gp) (setting [2]), the efflux ratio at 2 h, 1 μM was determined as 3.4. On MDR1 (P-gp), this molecule had a Papp at 2 h, 1 μM of 5 ×10⁻⁶ cm/s.

As to `COc1cc2ncc(C#N)c(Oc3ccc(NC(=O)c4cn(C(C)C)cc(-c5ccc(F)cc5)c4=O)nc3)c2cc1OC` [Example 57, N-(5-((3-cyano-6,7-dimethoxyquinolin-4-yl)oxy)pyridin-2-yl)-5-(4-fluorophenyl)-1-isopropyl-4-oxo-1,4-dihydropyridine-3-carboxamide], the IC50 on human MET kinase Y1230C came to 526 nM. Besides, the values for the efflux ratio at 2 h, 1 μM on MDR1 (P-gp) (setting [1]) and on MDR1 (P-gp) (setting [2]) were 3.5 and 2.5, respectively. This molecule displayed a Papp at 2 h, 1 μM on MDR1 (P-gp) of 15 ×10⁻⁶ cm/s.

What is called IC50 is the concentration needed to halve the response being measured. A word on the Papp: it is the rate of passage across a membrane or cell layer, normalised by area and donor concentration. Higher therefore signals ready permeation.
